The subject of this data set is Vero cells. The experiment in a line: Vero cell cytotoxicy assays (light microscopy of monolayers).

Where the note is “a small proportion of cells appeared to remain healthy”, polysorbate 60 [PS-60] gave a sub-toxic dose of 0.125%. This substance had a non-toxic dose (no changes compared to the untreated control) of 0.06%.

The record behind these values is patent US20130158127A1, “TEA TREE OIL DERIVATIVES” (priority 2011, published 2013).
